Measurements published in ChEMBL document CHEMBL5465560, “Selectivity Literature for EUbOPEN Chemogenomic Library” (2024).

What was measured:
[1] = molecular target: Vascular endothelial growth factor receptor 1 (Homo sapiens) (UniProt P17948); assay: Selectivity interaction (Kinase panel (DSF assay)) EUB0001489b FLT1
[2] = molecular target: Tyrosine-protein kinase BTK (Homo sapiens, UniProt Q06187); assay: Selectivity interaction (Ambit KINOMEscan and KiNATiv profiling in Jurkat cells) EUB0000090b BTK; type: cell-based; settings: at 1 µM
[3] = molecular target: Cyclin-dependent kinase 18 (Homo sapiens) (UniProt Q07002); assay: Selectivity interaction (KinomeScan (DiscoverX)) EUB0000655a CDK18; settings: at 10 µM
[4] = molecular target: Protein-tyrosine kinase 6 (Homo sapiens, UniProt Q13882); assay: Selectivity interaction (KinomeScan (DiscoverX)) EUB0001079a PTK6; settings: at 1 µM
[5] = molecular target: Bromodomain-containing protein 4 (Homo sapiens, UniProt O60885)
[6] = molecular target: T1, Serine/threonine-protein kinase ULK1 (Homo sapiens) (UniProt O75385); assay: Selectivity interaction (KinomeScan (DiscoverX)) EUB0000045b ULK1
T1 sequence (whole entry): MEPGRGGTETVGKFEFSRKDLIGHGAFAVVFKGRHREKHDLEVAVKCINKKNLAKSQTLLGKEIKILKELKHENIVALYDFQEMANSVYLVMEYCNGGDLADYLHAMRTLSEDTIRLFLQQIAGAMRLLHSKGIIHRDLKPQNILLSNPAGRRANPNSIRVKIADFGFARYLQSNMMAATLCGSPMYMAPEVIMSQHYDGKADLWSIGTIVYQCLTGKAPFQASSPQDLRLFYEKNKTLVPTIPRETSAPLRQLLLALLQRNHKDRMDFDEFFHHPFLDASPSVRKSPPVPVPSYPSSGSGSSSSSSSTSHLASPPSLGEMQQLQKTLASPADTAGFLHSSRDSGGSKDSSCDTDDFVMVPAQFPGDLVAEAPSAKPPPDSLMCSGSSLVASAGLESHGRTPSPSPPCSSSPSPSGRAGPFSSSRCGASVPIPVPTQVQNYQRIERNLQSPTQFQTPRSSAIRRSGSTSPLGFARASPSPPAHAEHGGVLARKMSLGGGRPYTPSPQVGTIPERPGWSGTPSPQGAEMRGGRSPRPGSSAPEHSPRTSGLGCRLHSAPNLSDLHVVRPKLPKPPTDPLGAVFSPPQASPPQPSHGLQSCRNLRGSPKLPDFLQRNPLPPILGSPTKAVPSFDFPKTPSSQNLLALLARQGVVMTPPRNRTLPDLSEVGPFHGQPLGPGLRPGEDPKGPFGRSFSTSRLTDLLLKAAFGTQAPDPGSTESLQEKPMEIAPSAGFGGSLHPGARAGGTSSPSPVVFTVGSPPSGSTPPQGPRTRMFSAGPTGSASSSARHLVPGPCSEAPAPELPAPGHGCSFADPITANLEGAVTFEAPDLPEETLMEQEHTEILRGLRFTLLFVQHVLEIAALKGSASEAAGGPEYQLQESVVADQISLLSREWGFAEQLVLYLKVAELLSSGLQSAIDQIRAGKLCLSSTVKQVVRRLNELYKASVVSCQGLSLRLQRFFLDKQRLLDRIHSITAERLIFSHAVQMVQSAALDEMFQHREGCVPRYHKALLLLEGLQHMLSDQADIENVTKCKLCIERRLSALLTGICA

[7] = molecular target: T2, Ephrin type-A receptor 6 (Homo sapiens) (UniProt Q9UF33); assay: Selectivity interaction (KinomeScan (DiscoverX)) EUB0000045b EPHA6
T2 sequence (whole entry): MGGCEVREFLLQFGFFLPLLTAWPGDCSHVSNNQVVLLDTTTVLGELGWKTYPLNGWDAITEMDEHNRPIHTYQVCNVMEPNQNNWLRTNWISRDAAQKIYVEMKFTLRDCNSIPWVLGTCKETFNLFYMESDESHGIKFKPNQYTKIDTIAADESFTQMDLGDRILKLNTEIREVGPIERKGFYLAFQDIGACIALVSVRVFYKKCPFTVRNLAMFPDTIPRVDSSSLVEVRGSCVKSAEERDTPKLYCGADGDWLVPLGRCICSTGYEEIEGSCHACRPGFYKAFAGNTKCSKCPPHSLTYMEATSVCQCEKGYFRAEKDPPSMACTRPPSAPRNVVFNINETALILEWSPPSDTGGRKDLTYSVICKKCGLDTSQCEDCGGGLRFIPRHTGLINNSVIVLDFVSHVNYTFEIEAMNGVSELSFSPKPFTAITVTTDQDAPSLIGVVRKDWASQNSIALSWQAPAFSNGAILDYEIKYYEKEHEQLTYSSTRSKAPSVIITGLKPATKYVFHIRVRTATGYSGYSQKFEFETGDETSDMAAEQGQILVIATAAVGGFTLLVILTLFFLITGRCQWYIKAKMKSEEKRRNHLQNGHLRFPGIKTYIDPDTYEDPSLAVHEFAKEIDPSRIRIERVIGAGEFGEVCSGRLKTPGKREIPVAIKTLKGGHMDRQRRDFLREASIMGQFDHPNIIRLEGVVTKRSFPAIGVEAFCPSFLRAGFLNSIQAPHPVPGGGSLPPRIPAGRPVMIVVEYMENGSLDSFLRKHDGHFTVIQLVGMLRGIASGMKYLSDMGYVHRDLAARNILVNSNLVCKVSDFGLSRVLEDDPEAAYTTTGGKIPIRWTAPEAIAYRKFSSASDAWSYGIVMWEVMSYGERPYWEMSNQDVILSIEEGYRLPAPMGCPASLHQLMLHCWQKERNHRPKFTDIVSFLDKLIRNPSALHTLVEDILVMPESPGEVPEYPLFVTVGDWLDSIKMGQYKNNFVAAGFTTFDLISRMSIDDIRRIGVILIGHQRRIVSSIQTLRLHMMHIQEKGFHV

[8] = molecular target: Glycogen synthase kinase-3 alpha (Homo sapiens, UniProt P49840); assay: Selectivity interaction (KinomeScan (DiscoverX)) EUB0000595a GSK3A; settings: at 10 µM
[9] = molecular target: Protein kinase C delta type (Homo sapiens) (UniProt Q05655); assay: Selectivity interaction (ProQinase) EUB0000171b PRKCD
[10] = molecular target: Macrophage-stimulating protein receptor (Homo sapiens, UniProt Q04912); assay: Selectivity interaction (KinomeScan (DiscoverX)) EUB0000666a MST1R; settings: at 10 µM
[11] = molecular target: Protein kinase C delta type (Homo sapiens) (UniProt Q05655); assay: Selectivity interaction (KinomeScan (DiscoverX)) EUB0000666a PRKCD; settings: at 10 µM
[12] = molecular target: Serine/threonine-protein kinase PAK 6 (Homo sapiens) (UniProt Q9NQU5); assay: Selectivity interaction (KinomeScan (DiscoverX)) EUB0000092b PAK6; settings: at 10 µM
[13] = molecular target: [Pyruvate dehydrogenase (acetyl-transferring)] kinase isozyme 1, mitochondrial (Homo sapiens, UniProt Q15118); assay: Selectivity interaction (Kinase panel (Z-LYTE Assay)) EUB0001632a PDK1; settings: at 10 µM
[14] = molecular target: Receptor-type tyrosine-protein kinase FLT3 (Homo sapiens) (UniProt P36888); assay: Selectivity interaction (KinomeScan (DiscoverX)) EUB0000695a FLT3; settings: at 100 nM
Sequence of Receptor-type tyrosine-protein kinase FLT3 (Homo sapiens) (P36888 whole entry): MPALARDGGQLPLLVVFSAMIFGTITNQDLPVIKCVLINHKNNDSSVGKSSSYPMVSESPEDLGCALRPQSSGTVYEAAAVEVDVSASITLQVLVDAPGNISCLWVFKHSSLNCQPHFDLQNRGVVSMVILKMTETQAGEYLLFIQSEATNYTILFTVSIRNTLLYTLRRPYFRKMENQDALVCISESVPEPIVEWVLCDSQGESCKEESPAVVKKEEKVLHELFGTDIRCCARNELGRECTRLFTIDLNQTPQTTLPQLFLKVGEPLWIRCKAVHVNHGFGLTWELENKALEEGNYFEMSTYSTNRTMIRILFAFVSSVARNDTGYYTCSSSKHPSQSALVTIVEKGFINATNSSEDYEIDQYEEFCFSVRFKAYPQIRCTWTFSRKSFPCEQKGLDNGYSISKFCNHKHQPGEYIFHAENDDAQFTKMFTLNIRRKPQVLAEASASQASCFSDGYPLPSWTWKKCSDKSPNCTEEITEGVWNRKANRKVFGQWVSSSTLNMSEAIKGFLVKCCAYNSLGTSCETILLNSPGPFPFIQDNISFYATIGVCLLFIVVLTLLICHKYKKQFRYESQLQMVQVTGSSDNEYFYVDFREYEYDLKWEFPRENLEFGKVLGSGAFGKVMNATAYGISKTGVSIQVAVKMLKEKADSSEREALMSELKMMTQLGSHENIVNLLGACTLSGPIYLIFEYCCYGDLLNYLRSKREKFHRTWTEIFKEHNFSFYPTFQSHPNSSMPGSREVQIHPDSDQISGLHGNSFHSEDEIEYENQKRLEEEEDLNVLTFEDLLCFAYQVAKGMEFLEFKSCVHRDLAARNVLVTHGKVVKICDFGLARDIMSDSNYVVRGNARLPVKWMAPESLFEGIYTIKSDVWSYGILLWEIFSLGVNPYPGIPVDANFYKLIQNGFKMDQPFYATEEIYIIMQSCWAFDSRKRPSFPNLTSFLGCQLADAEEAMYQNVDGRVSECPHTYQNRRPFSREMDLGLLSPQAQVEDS

Sequence of Protein kinase C delta type (Homo sapiens) (Q05655 whole entry, looked up): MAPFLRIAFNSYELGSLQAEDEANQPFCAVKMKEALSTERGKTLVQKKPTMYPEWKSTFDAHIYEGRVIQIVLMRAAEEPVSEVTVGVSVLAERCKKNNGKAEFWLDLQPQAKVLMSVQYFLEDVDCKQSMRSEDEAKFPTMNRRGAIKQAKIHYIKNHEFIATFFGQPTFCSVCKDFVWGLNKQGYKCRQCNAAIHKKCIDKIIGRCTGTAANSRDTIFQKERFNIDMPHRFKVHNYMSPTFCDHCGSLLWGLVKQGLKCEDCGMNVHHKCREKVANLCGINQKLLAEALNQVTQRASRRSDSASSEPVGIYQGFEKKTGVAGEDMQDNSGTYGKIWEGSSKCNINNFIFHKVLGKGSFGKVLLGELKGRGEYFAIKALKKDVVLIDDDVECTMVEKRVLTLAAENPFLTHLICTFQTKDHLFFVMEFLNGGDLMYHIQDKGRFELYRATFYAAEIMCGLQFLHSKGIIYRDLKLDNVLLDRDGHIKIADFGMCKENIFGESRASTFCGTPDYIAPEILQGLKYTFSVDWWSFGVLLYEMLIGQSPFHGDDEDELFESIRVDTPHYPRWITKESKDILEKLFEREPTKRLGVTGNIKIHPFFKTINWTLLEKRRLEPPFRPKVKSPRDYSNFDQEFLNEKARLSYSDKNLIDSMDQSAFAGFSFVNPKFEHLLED
Sequence of Serine/threonine-protein kinase PAK 6 (Homo sapiens) (Q9NQU5 whole entry, looked up): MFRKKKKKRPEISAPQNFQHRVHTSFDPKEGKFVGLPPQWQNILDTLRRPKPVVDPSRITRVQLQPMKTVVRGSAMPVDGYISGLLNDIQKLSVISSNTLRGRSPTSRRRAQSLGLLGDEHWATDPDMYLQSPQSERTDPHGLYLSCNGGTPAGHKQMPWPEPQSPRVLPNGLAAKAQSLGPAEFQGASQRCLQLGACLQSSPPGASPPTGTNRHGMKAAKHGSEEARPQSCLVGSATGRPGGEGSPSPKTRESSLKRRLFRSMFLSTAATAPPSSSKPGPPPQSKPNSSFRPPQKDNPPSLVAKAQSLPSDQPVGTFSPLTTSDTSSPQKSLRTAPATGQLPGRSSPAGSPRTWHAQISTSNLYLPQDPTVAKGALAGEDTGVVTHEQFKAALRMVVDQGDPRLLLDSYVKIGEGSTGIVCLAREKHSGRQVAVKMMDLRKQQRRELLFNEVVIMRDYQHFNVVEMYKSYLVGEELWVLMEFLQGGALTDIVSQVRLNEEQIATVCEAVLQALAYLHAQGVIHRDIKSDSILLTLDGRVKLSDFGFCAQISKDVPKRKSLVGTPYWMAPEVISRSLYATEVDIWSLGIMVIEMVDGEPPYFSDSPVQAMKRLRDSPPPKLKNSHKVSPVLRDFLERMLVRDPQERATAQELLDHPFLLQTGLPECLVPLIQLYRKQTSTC
Sequence of Macrophage-stimulating protein receptor (Q04912 25-304 limits assumed): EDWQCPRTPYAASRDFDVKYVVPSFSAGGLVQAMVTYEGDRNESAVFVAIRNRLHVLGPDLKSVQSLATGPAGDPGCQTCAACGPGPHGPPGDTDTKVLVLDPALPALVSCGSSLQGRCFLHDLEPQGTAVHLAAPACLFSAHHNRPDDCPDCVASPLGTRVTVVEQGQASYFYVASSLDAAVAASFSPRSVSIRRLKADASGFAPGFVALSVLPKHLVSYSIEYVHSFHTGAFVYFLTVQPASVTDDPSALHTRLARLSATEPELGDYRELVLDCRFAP
Sequence of Macrophage-stimulating protein receptor (Q04912 310-1400 limits assumed): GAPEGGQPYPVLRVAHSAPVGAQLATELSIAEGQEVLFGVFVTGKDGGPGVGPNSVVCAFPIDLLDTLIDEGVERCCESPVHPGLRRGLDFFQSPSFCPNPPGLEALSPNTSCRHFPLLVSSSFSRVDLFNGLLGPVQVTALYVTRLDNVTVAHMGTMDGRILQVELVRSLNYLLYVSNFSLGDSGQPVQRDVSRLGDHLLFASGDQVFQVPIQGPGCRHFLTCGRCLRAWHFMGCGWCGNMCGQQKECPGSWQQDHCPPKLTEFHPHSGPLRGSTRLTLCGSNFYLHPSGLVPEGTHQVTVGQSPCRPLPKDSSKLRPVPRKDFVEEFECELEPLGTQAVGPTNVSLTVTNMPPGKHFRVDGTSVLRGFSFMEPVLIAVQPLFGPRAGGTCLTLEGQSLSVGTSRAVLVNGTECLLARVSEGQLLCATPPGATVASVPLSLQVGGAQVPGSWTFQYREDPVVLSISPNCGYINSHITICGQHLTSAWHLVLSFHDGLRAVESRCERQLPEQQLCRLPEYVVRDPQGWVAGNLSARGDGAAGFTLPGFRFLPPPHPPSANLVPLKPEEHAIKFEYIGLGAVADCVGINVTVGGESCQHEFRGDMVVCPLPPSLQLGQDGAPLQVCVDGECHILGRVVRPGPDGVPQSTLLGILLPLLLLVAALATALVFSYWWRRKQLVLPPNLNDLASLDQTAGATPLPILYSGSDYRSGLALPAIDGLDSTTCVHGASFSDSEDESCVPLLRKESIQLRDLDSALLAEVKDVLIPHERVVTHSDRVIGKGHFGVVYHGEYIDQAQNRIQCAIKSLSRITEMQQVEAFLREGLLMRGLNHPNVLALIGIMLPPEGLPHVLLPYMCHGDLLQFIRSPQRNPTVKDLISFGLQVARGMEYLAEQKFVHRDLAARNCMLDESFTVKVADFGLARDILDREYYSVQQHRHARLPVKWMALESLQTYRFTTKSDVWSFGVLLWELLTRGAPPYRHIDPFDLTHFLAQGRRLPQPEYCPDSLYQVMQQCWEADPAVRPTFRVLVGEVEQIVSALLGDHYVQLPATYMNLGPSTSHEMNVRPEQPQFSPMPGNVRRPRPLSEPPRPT
Sequence of Tyrosine-protein kinase BTK (Q06187 whole entry): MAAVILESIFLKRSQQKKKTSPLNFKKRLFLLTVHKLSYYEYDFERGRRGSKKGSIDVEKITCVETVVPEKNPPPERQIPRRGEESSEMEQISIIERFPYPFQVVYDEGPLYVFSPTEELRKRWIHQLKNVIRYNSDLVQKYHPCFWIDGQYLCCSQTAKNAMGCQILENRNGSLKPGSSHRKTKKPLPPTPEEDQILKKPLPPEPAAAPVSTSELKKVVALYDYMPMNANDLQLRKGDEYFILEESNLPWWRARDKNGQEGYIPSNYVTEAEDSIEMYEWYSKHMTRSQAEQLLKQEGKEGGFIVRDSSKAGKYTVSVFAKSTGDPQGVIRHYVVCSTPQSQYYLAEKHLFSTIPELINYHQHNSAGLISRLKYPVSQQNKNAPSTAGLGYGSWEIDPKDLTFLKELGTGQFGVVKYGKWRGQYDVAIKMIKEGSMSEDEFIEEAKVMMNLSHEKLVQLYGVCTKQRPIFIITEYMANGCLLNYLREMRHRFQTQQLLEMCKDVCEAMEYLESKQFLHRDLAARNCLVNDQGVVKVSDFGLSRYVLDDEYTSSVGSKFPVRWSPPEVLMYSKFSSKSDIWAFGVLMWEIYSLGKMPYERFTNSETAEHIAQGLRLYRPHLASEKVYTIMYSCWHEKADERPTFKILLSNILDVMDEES
Sequence of Protein-tyrosine kinase 6 (Q13882 whole entry, looked up): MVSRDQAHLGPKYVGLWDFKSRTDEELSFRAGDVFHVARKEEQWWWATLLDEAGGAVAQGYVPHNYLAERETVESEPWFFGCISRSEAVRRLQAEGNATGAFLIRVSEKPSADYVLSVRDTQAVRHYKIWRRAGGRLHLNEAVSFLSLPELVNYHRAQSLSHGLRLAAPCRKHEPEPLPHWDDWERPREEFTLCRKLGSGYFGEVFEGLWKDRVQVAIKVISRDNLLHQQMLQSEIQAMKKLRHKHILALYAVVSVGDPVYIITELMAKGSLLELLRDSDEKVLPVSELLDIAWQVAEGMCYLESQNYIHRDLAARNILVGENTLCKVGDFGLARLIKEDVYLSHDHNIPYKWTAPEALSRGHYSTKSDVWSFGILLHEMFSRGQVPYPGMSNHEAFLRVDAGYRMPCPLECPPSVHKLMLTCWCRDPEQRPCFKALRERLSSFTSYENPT

Question: `CN1CCN(C(=O)c2ccc3cc2OCCOCCNc2ccn4ncc-3c4n2)CC1` was tested. Which dTM [1] did it give?
Answer: 2.9 K

Question: `CN(C)C/C=C/C(=O)Nc1ccc(C(=O)N2CCCC(Nc3ncc(Cl)c(-c4c[nH]c5ccccc45)n3)C2)cc1` (configuration not stated) was tested. Which % of control [2] did it give?
Answer: 90%

Question: How did the % of control [3] turn out when `CN(C)CCOc1ccc(-c2nc(-c3ccncc3)c(-c3ccc4c(c3)CC/C4=N\O)[nH]2)cc1` was run?
Answer: 100%

Question: With `Nc1cnc(N2CCc3cc(S(=O)(=O)Nc4c(F)cc(Cl)cc4F)cc(N4CCCC4=O)c32)nc1` [TP-020n] as the compound, how does the % of control [4] read?
Answer: 100%

Question: Which Kdapp [5] does the source give for `CC(=O)Nc1cccc(-n2c(=O)n(C3CC3)c(=O)c3c(Nc4ccc(I)cc4F)n(C)c(=O)c(C)c32)c1` here?
Answer: 1920 nM

Question: With `C=CC(=O)Nc1cc(-n2c(=O)ccc3cnc4ccc(-c5ccc(NS(C)(=O)=O)cc5)cc4c32)ccc1C` as the compound, how does the % of control ([6]; at 1 µM) read?
Answer: 84%

Question: And the % of control ([6]; at 10 µM)?
Answer: 100%

Question: What about the % of control ([7]; at 1 µM) of the same compound?
Answer: 96%

Question: And the % of control ([7]; at 10 µM)?
Answer: 87%

Question: With `COCC(=O)NC/C=C/c1ccc2ncnc(Nc3ccc(Oc4ccc(C)nc4)c(C)c3)c2c1` [CP-724714] as the compound, how does the % of control [8] read?
Answer: 100%

Question: What does the source list for `C=CC(=O)Nc1cccc(C(=O)Nc2ccc(Nc3cc(-c4[nH]c(SC)nc4C)ccn3)cc2)c1`?
Answer: % of control ([9]; at 1 µM): 84%; % of control ([9]; at 5 µM): 94%

Question: Which results are given for `O=C(NOC[C@H](O)CO)c1ccc(F)c(F)c1Nc1ccc(I)cc1F`?
Answer: % of control [10]: 78%; % of control [11]: 100%

Question: Which % of control [12] does the source give for `CCC(=O)N1CCN(c2ccc(-n3c(=O)ccc4cnc5ccc(-c6cnc7ccccc7c6)cc5c43)cc2C(F)(F)F)CC1` here?
Answer: 87%

Question: Which % of control [13] does the source give for `Cn1cc(-n2cnc3c(NCc4nc5cc(Cl)c(Cl)cc5[nH]4)nc(N4CCOCC4)nc32)cn1` here?
Answer: -4.24%

Question: Which % of control [14] does the source give for `Cc1cc(F)c(C(=O)Nc2cccc(-c3nncn3C(C)C)n2)cc1-n1cnc(C2CC2)c1` here?
Answer: 100%
